# US20050267025A1, “Compositions and methods for treatment of infectious and inflammatory diseases” (priority 2002, published 2005)
# System: human monocytes
# Assay type: cell-based
substance,measurement,value
polymyxin B [reference compound],effect on IL-10 promotion when added to yeast rCFP32 or CF from WT and mutant Mtb,no effect
